# Assay results: patent US20050288347A1, “Certain triazole-based compounds, compositions, and uses thereof” (priority 2004, published 2005)
# Entries after “also recorded” stand apart in the source; their conditions may differ.
# Biological target: protein kinase
# Assay: HTS ATP-utilizing enzyme assay, off-chip mobility-shift format (Caliper HTS 250)
# Format: biochemical, human
# Conditions: kinase(s) for which the compound exhibits protein kinase inhibitory activity; test compound 10 μM; active = greater than three-sigma from the mean activity of inactive compounds
# How it was run: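 Single-point screen at 10 μM compound in HEPES pH 7.5 buffer with Triton X-100 and BSA, 2.5 h at 20–22 °C. Substrate-to-phosphopeptide ratio measured by off-chip microfluidic mobility shift; EDTA wells as 100% and DMSO wells as 0% control, hits called at three-sigma limits.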
row,Structure (SMILES),Kinase
1,Cn1c(SCC(=O)c2ccc3c(c2)OCCO3)nnc1-c1ccc(O)cc1,GSK3-β and GSK3-α and MSK1
2,COCCn1c(SCC(=O)O)nnc1-c1cc2c(C)nn(-c3ccccc3)c2s1,AKT1
3,COCCn1c(SCC(=O)c2ccccc2)nnc1-c1ccc(OC)cc1,AKT1
4,COc1ccc(NCc2nnc(SCC#N)n2-c2ccccc2OC)cc1,FYN
5,COc1ccccc1-n1c(SCC(=O)O)nnc1-c1cccnc1,AURORA-A
6,CCOc1ccc(NCc2nnc(SCC#N)n2-c2cccc(Cl)c2)cc1,PDGFRR-α and FYN
7,COc1ccc(-n2c(SCC(=O)O)nnc2-c2ccc(NS(=O)(=O)c3ccc(C)cc3)cc2)cc1,CDK2-cyclinA and CDK2-cyclinE and CDK1
8,COc1ccc(NCc2nnc(SCC(=O)O)n2-c2ccc(OC)cc2)cc1,PDGFRR-α and FYN
9,COc1ccc(-n2c(COc3cccc4ccccc34)nnc2SCC#N)cc1,MAPKAPK-2 and CDK1
10,COc1ccc(-n2c(COc3ccc4ccccc4c3)nnc2SCC(=O)O)cc1,AURORA-A
11,COc1ccc(-n2c(COc3cccc(C)c3)nnc2SC(C)C(=O)O)cc1 (stereo not shown),AURORA-A
12,COc1ccc(-n2c(SCC(=O)O)nnc2-c2cccnc2)cc1,AURORA-A
13,O=C(O)CSc1nnc(-c2ccc(O)cc2)n1Cc1ccco1,GSK3-β; also recorded: GSK3-α
14,N#CCSc1nnc(-c2ccc(O)cc2)n1Cc1ccco1,GSK3-β; also recorded: GSK3-α; also recorded: AURORA-A
15,O=C(CSc1nnc(-c2ccc(O)cc2)n1Cc1ccco1)c1ccccc1,GSK3-β and GSK3-α and MSK2
16,O=C(O)CSc1nnc(CNc2cccc(C(F)(F)F)c2)n1Cc1ccco1,SRC and AURORA-A
17,COc1cccc(OCc2nnc(SCC(=O)O)n2Cc2ccccc2)c1,MSK1
18,Cc1cc(OCc2nnc(SCC(=O)O)n2Cc2ccccc2)ccc1Cl,HCK
19,CC(Sc1nnc(CNc2ccc(Cl)cc2)n1Cc1ccccc1)C(=O)O (stereo not shown),DAPK1
20,N#CCSc1nnc(CNc2ccc(Cl)cc2)n1Cc1ccccc1,MSK1
21,O=C(O)CSc1nnc(CNc2ccc(F)cc2)n1Cc1ccccc1,DAPK1
22,N#CCSc1nnc(COc2cccc3ccccc23)n1Cc1ccccc1,CDK1 and CHEK2
23,CCn1c(SCC(=O)O)nnc1-c1cc2c(C)nn(-c3ccccc3)c2s1,FYN
24,CCn1c(SCC#N)nnc1-c1ccc(S(=O)(=O)N2CCOCC2)cc1,AURORA-A
25,CCn1c(SCC(=O)O)nnc1-c1ccc(S(=O)(=O)N2CCOCC2)cc1,CDK1

row,Structure (SMILES),Kinase
1,CCn1c(SCC(=O)c2cccs2)nnc1-c1ccc(O)cc1,MSK1 and MSK2 and GSK3-β
2,CCn1c(CNc2cccc(C(F)(F)F)c2)nnc1SCC#N,CDK2 and CDK1 and CHEK2
3,CCn1c(COc2ccc(OC)cc2)nnc1SCC(=O)O,AKT1
4,CCn1c(COc2cccc3ccccc23)nnc1SCC#N,AURORA-A
5,Cn1c(COc2cccc3ccccc23)nnc1SCC(=O)O,CDK2-cyclinA; also recorded: AURORA-A
6,COc1ccccc1-n1c(SCC#N)nnc1-c1ccccc1O,AURORA-A
7,COc1ccc(-n2c(SCC(=O)O)nnc2-c2ccccc2OC)cc1,AURORA-A
8,O=C(O)CSc1nnc(-c2ccc(S(=O)(=O)N3CCOCC3)cc2)n1-c1ccccc1,CHEK2
9,COc1ccc(-n2c(SCC(=O)O)nnc2-c2ccc(NC(=O)c3ccccc3)cc2)cc1,CHEK2
10,COc1ccc(-n2c(SC(C)C(=O)O)nnc2-c2ccc(NC(=O)c3ccccc3)cc2)cc1 (stereo not shown),CHEK2; also recorded: AURORA-A
11,COc1ccc(-n2c(SC(C)C(=O)O)nnc2-c2ccc(O)cc2)cc1 (stereo not shown),GSK3-β; also recorded: MAPKAPK-2
12,O=C(CSc1nnc(-c2ccc(O)cc2)n1-c1ccccc1)c1ccccc1,GSK3-α
13,C=C(C)Cn1c(SCC(=O)O)nnc1-c1ccc(OC)cc1,MSK1
14,O=C(O)CSc1nnc(-c2ccc([N+](=O)[O-])cc2)n1CC1CCCO1 (stereo not shown),PDGFRR-α
15,COCCCn1c(SCC(=O)O)nnc1-c1ccc(C(C)(C)C)cc1,CHEK2
16,COc1ccc(-n2c(CNc3cc(C(F)(F)F)ccc3Cl)nnc2SCC#N)cc1,CDK1
17,CCn1c(CNc2ccc(C)c(Cl)c2)nnc1SCC(=O)O,PDGFRR-α
18,Cc1ccc(NCc2nnc(SCC#N)n2-c2ccccc2)cc1Cl,AURORA-A
19,CCn1c(CNc2cccc(Cl)c2)nnc1SCC#N,CDK2-cyclinA
20,CCn1c(CNc2cccc(Cl)c2)nnc1SCC(=O)O,CDK2-cyclinA
21,Cn1c(CNc2cccc(Cl)c2)nnc1SCC#N,AURORA-A
22,Cn1c(COc2ccc(Br)cc2)nnc1SCC(=O)O,AURORA-A
23,CCn1c(COc2ccc(Cl)c(C)c2)nnc1SCC#N,AURORA-A
24,CCn1c(COc2ccc(Cl)c(C)c2)nnc1SCC(=O)O,MSK1
25,Cc1cc(OCc2nnc(SC(C)C(=O)O)n2-c2ccccc2)ccc1Cl (stereo not shown),AURORA-A

row,Structure (SMILES),Kinase
1,CCn1c(CNc2ccc(Cl)cc2)nnc1SCC#N,LYNA and DYRK2
2,CCOc1ccc(NCc2nnc(SCC#N)n2-c2ccc(C)cc2)cc1,FYN
3,CCOc1ccc(NCc2nnc(SCC(=O)O)n2-c2ccc(C)cc2)cc1,FYN
4,Cc1ccc(-n2c(CNc3ccc(F)cc3)nnc2SCC(=O)O)cc1,DAPK1; also recorded: AURORA-A
5,COc1ccc(OCc2nnc(SCC(=O)O)n2-c2ccc(C)cc2)cc1,AURORA-A
6,COc1ccc(NCc2nnc(SCC(=O)O)n2-c2ccc(C)cc2)cc1,FYN
7,COc1ccc(NCc2nnc(SCC#N)n2-c2ccc(C)cc2)cc1,FYN and PDGFRR-α and AURORA-A
8,COc1ccc(NCc2nnc(SC(C)C(=O)O)n2-c2ccccc2)cc1 (stereo not shown),FYN( and PDGFRR-α
9,Cc1ccc(-n2c(COc3cccc4ccccc34)nnc2SC(C)C(=O)O)cc1 (stereo not shown),AKT1
10,Cc1ccc(NCc2nnc(SCC#N)n2-c2ccc(Cl)cc2)cc1,PDGFRR-α and CDK1
11,COc1ccc(-n2c(CNc3ccc(C)cc3)nnc2SCC(=O)O)cc1,PDGFRR-α
12,COc1ccc(C(=O)CSc2nnc(CNc3ccc(C)cc3)n2-c2ccccc2)cc1,CHEK2 and SYK
13,O=C(O)CSc1nnc(-c2ccco2)n1CC1CCCO1 (stereo not shown),AURORA-A
14,COc1ccc(C(=O)CSc2nnc(C3CCCCC3)n2C)cc1,SYK
15,C=CCn1c(Sc2c(O)nc3ccccc3c2-c2ccccc2)nnc1-c1ccc(Cl)c(Cl)c1,FLT-3
16,COc1cccc(OC(=O)CSc2nnc(CNc3c(C)cccc3C)n2-c2ccccc2)c1,C-TAK1
17,O=C(CSc1nnc(-c2cccnc2)n1-c1ccccc1)CC(=O)Nc1ccccc1,AURORA-A
18,Cc1ccc(-n2c(SCC(=O)CC(=O)Nc3ccccc3)nnc2-c2cccnc2)cc1,AURORA-A
19,Cn1c(SCSC#N)nnc1-c1ccc(S(=O)(=O)N2CCOCC2)cc1,GSK3-β
20,O=C(CSc1nnc(-c2cccnc2)n1Cc1ccccc1)CC(=O)Nc1ccccc1,AURORA-A
21,COc1ccc(NCc2nnc(S)n2-c2ccc(OC)cc2)cc1,PDGFRR-α; also recorded: AURORA-A; also recorded: GSK3-α
22,Cn1c(SCC(=O)CC(=O)Nc2ccccc2)nnc1-c1ccc(O)cc1,AURORA-A
23,O=C(CSc1nnc(-c2ccc(O)cc2)n1-c1ccccc1)CC(=O)Nc1ccccc1,AURORA-A; also recorded: GSK3-α
24,CCn1c(S)nnc1-c1ccc(S(=O)(=O)N2CCN(C)CC2)cc1,GSK3-α; also recorded: GSK3-β
25,O=c1c(Sc2nnc(-c3ccccc3)n2C2CCCCC2)c(Br)cnn1-c1ccccc1,GSK3-α

row,Structure (SMILES),Kinase
1,COc1ccc(-n2c(SCC#N)nnc2-c2ccc(NC(=O)c3ccccc3)cc2)cc1,CHEK2 and AKT1
2,COc1ccc(-n2c(SCC#N)nnc2-c2ccc(NS(=O)(=O)c3ccc(C)cc3)cc2)cc1,CDK2-cyclinA and CDK1 and CDK2-cyclinE
3,O=C(CSc1nnc(-c2ccccc2O)n1Cc1ccco1)OCc1ccccc1,GSK3-α
4,COc1ccccc1-n1c(SCC(=O)OCc2ccccc2)nnc1-c1ccccc1O,KIT
5,COCCCn1c(SCC(=O)OCc2ccccc2)nnc1-c1ccc(OC)cc1,CDK2-cyclinE and MSK1
6,COc1ccccc1-n1c(SCC(=O)OCc2ccccc2)nnc1-c1ccco1,GSK3-α; also recorded: AURORA-A
7,COc1ccc(-c2nnc(SCC(=O)OC3CCCCCC3)n2-c2cccc(C(F)(F)F)c2)cc1,FLT-3
8,O=C(CSc1nnc(-c2ccc(O)cc2)n1Cc1ccccc1)OC1CCCCC1,GSK3-α; also recorded: GSK3-β
9,COCCn1c(SCC(=O)OC2CCCCC2)nnc1-c1cc2ccccc2cc1O,DAPK1
10,Cn1c(SCC(=O)OC2CCCCC2)nnc1-c1cc2ccccc2cc1O,AURORA-A; also recorded: DAPK1; also recorded: c-TAK1
11,Cn1c(SCC(=O)OC2CCCCC2)nnc1-c1ccc(O)cc1,GSK3-α
12,Cc1ccc(NCc2nnc(SCC(=O)OC3CCCCC3)n2-c2ccccc2)cc1Cl,PAK2 and CHEK1
13,CCOC(=O)CSc1nnc(-c2ccc(O)cc2)n1Cc1ccco1,GSK3-β; also recorded: GSK3-α
14,CCOC(=O)CSc1nnc(COc2ccc3ccccc3c2)n1C,MAPKAPK-2
15,CCOC(=O)CSc1nnc(-c2ccccc2O)n1-c1ccccc1OC,AURORA-A
16,CCOC(=O)CSc1nnc(-c2cc3ccccc3cc2O)n1C,FYN
17,CCOC(=O)CSc1nnc(CNc2cc(Cl)ccc2Cl)n1CC,DYRK2
18,CCOC(=O)CSc1nnc(CNc2ccc(C)c(Cl)c2)n1CC1CCCO1 (stereo not shown),CHEK2
19,CCOC(=O)CSc1nnc(CSc2nc3ccccc3s2)n1C,CSK
20,COc1ccc(NCc2nnc(SCC(=O)OC(C)C)n2-c2ccc(OC)cc2)cc1,FYN and CDK2-cyclinE
21,CC(C)OC(=O)CSc1nnc(-c2cccnc2)n1Cc1ccco1,AKT1
22,COCCn1c(SCC(=O)OC(C)C)nnc1-c1cc2ccccc2cc1O,FYN
23,COC(=O)CSc1nnc(CNc2ccc(OC)cc2)n1C,PDGFRR-α and FYN
24,COC(=O)CSc1nnc(CNc2ccc(OC)cc2)n1-c1ccccc1,PDGFRR-α
25,CCn1c(CNc2cccc(C(F)(F)F)c2)nnc1SCC(=O)Oc1ccc(C)cc1,CDK2-cyclinA and CDK1 and CHEK2
